tested on: HIV; test: Table 1 IC50 of the examples (assay method not given; patent concerns inhibiting HIV replication); format: cell-based; details: not given

**Q.** With `COc1c(F)cccc1C(=O)N1CCc2c1cc(C)c([C@H](OC(C)(C)C)C(=O)O)c2-c1cc(F)c2c(c1C)CCCO2` (atropisomer, axis not shown; (P)) [Example 23, (S)-2-(tert-Butoxy)-2-((P)-1-(3-fluoro-2-methoxybenzoyl)-4-(8-fluoro-5-methylchroman-6-yl)-6-methylindolin-5-yl)acetic acid] as the compound, how does the IC50 read?
**A.** 95 nM

same assay, conditions: Human immunodeficiency virus 1

**Q.** `Cc1ccc(C(=O)N2CCc3c2cc(C)c([C@H](OC(C)(C)C)C(=O)O)c3-c2cc(F)c3c(c2C)CCCO3)c(F)c1` (atropisomer, axis not shown) [Example 139, (S)-2-(tert-Butoxy)-2-((R)-1-(2-fluoro-4-methylbenzoyl)-4-(8-fluoro-5-methylchroman-6-yl)-6-methylindolin-5-yl)acetic acid] was tested. Which IC50 did it give?
**A.** 6 nM

**Q.** How did the IC50 turn out when `Cc1cc(C)cc(C(=O)N2CCc3c2cc(C)c([C@H](OC(C)(C)C)C(=O)O)c3-c2cc(F)c3c(c2C)CCCO3)c1` (atropisomer, axis not shown) [Example 77, (S)-2-(tert-Butoxy)-2-((R)-1-(3,5-dimethylbenzoyl)-4-(8-fluoro-5-methylchroman-6-yl)-6-methylindolin-5-yl)acetic acid] was run?
**A.** 5 nM

**Q.** For `Cc1cc2c(c(-c3cc(F)c4c(c3C)CCCO4)c1[C@H](OC(C)(C)C)C(=O)O)CCN2C(=O)c1ccccc1C(F)(F)F` (atropisomer, axis not shown) [Example 125, (S)-2-(tert-Butoxy)-2-((R)-4-(8-fluoro-5-methylchroman-6-yl)-6-methyl-1-(2-(trifluoromethyl)benzoyl)indolin-5-yl)acetic acid], which IC50 is on record?
**A.** 5 nM

**Q.** How did the IC50 turn out when `Cc1cc2c(c(-c3cc(F)c4c(c3C)CCCO4)c1[C@H](OC(C)(C)C)C(=O)O)CCN2C(=O)c1ccc(Cl)c(Cl)c1` (atropisomer, axis not shown) [Example 61, (S)-2-(tert-Butoxy)-2-((R)-1-(3,4-dichlorobenzoyl)-4-(8-fluoro-5-methylchroman-6-yl)-6-methylindolin-5-yl)acetic acid] was run?
**A.** 17 nM

**Q.** With `COc1cc(C)ccc1C(=O)N1CCc2c1cc(C)c([C@H](OC(C)(C)C)C(=O)O)c2-c1cc(F)c2c(c1C)CCCO2` (atropisomer, axis not shown) [Example 159, (S)-2-(tert-Butoxy)-2-((R)-4-(8-fluoro-5-methylchroman-6-yl)-1-(2-methoxy-4-methylbenzoyl)-6-methylindolin-5-yl)acetic acid] as the compound, how does the IC50 read?
**A.** 4 nM

**Q.** With `Cc1ccc(C(=O)N2CCc3c2cc(C)c([C@H](OC(C)(C)C)C(=O)O)c3-c2ccc3c(c2C)CCCO3)cn1` (atropisomer, axis not shown) [Example 191, (S)-2-(tert-Butoxy)-2-((R)-6-methyl-4-(5-methylchroman-6-yl)-1-(6-methylnicotinoyl)indolin-5-yl)acetic acid] as the compound, how does the IC50 read?
**A.** 868 nM

**Q.** With `Cc1ccc(C(=O)N2CCc3c2cc(C)c([C@H](OC(C)(C)C)C(=O)O)c3-c2cc(F)c3c(c2C)CCCO3)cc1C` (atropisomer, axis not shown) [Example 94, (S)-2-(tert-Butoxy)-2-((R)-1-(3,4-dimethylbenzoyl)-4-(8-fluoro-5-methylchroman-6-yl)-6-methylindolin-5-yl)acetic acid] as the compound, how does the IC50 read?
**A.** 4 nM

**Q.** `Cc1ccc(-c2c3c(cc(C)c2C(OC(C)(C)C)C(=O)O)N(C(=O)OCc2ccccc2)CCC3)cc1` (centres unmarked) [Example 208, 2-(1-((Benzyloxy)carbonyl)-7-methyl-5-(p-tolyl)-1,2,3,4-tetrahydroquinolin-6-yl)-2-(tert-butoxy)acetic acid] was tested. Which IC50 did it give?
**A.** 1120 nM

**Q.** With `Cc1cc(C(=O)N2CCc3c2cc(C)c([C@H](OC(C)(C)C)C(=O)O)c3-c2cc(F)c3c(c2C)CCCO3)ccc1Cl` (atropisomer, axis not shown) [Example 110, (S)-2-(tert-Butoxy)-2-((R)-1-(4-chloro-3-methylbenzoyl)-4-(8-fluoro-5-methylchroman-6-yl)-6-methylindolin-5-yl)acetic acid] as the compound, how does the IC50 read?
**A.** 4 nM

**Q.** Which IC50 does the source give for `Cc1ccc(-c2c3c(cc(C)c2[C@H](OC(C)(C)C)C(=O)O)N(C(=O)c2ccc(F)cc2)CC3)cc1` [Example 14, (S)-2-(tert-Butoxy)-2-(1-(4-fluorobenzoyl)-6-methyl-4-(p-tolyl)indolin-5-yl)acetic acid] here?
**A.** 7 nM

**Q.** With `Cc1cc2c(c(-c3cc(F)c4c(c3C)CCCO4)c1[C@H](OC(C)(C)C)C(=O)O)CCN2C(=O)c1cc(F)ccc1Cl` (atropisomer, axis not shown) [Example 150, (S)-2-(tert-Butoxy)-2-((R)-1-(2-chloro-5-fluorobenzoyl)-4-(8-fluoro-5-methylchroman-6-yl)-6-methylindolin-5-yl)acetic acid] as the compound, how does the IC50 read?
**A.** 8 nM

**Q.** With `Cc1ccc(C(=O)N2c3cc(C)c([C@H](OC(C)(C)C)C(=O)O)c(-c4cc(F)c5c(c4C)CCCO5)c3CC2(C)C)cn1` (atropisomer, axis not shown) [Example 204, (S)-2-(tert-Butoxy)-2-((R)-4-(8-Fluoro-5-methylchroman-6-yl)-2,2,6-trimethyl-1-(6-methylnicotinoyl)indolin-5-yl)acetic acid] as the compound, how does the IC50 read?
**A.** 19 nM

**Q.** With `Cc1ccc(C(=O)N2CCc3c2cc(C)c([C@H](OC(C)(C)C)C(=O)O)c3-c2cc(F)c3c(c2C)CCCO3)cc1` (atropisomer, axis not shown) [Example 108, (S)-2-(tert-Butoxy)-2-((R)-4-(8-fluoro-5-methylchroman-6-yl)-6-methyl-1-(4-methylbenzoyl)indolin-5-yl)acetic acid] as the compound, how does the IC50 read?
**A.** 4 nM

**Q.** How did the IC50 turn out when `COc1ccc(OC)c(C(=O)N2CCc3c2cc(C)c([C@H](OC(C)(C)C)C(=O)O)c3-c2cc(F)c3c(c2C)CCCO3)c1` (atropisomer, axis not shown) [Example 106, (S)-2-(tert-Butoxy)-2-((R)-1-(2,5-dimethoxybenzoyl)-4-(8-fluoro-5-methylchroman-6-yl)-6-methylindolin-5-yl)acetic acid] was run?
**A.** 11 nM

**Q.** For `COc1ccc(C(=O)N2CCc3c2cc(C)c([C@H](OC(C)(C)C)C(=O)O)c3-c2ccc(C)cc2)c(C)c1` [Example 10, (S)-2-(tert-Butoxy)-2-(1-(4-methoxy-2-methylbenzoyl)-6-methyl-4-(p-tolyl)indolin-5-yl)acetic acid], which IC50 is on record?
**A.** 12 nM

**Q.** `Cc1cc2c(c(-c3cc(F)c4c(c3C)CCCO4)c1[C@H](OC(C)(C)C)C(=O)O)CCN2C(=O)c1cccc2c1OCO2` (atropisomer, axis not shown) [Example 114, (S)-2-((R)-1-(Benzo[d][1,3]dioxole-4-carbonyl)-4-(8-fluoro-5-methylchroman-6-yl)-6-methylindolin-5-yl)-2-(tert-butoxy)acetic acid] was tested. Which IC50 did it give?
**A.** 5 nM

**Q.** For `Cc1ccc(-c2c3c(cc(C)c2C(OC(C)(C)C)C(=O)O)N(C2CCCCC2)CC3)cc1` (centres unmarked) [Example 4, 2-(tert-Butoxy)-2-(1-cyclohexyl-6-methyl-4-(p-tolyl)indolin-5-yl)acetic acid], which IC50 is on record?
**A.** 7520 nM

**Q.** `COc1c(F)ccc(F)c1C(=O)N1CCc2c1cc(C)c([C@H](OC(C)(C)C)C(=O)O)c2-c1ccc(C)cc1` [Example 15, (S)-2-(tert-Butoxy)-2-(1-(3,6-difluoro-2-methoxybenzoyl)-6-methyl-4-(p-tolyl)indolin-5-yl)acetic acid] was tested. Which IC50 did it give?
**A.** 117 nM

**Q.** For `Cc1ccc(-c2c3c(cc(C)c2[C@H](OC(C)(C)C)C(=O)O)N(C(=O)c2ccc(F)cc2Cl)CC3)cc1` [Example 19, (S)-2-(tert-Butoxy)-2-(1-(2-chloro-4-fluorobenzoyl)-6-methyl-4-(p-tolyl)indolin-5-yl)acetic acid], which IC50 is on record?
**A.** 5 nM

— US20190284136A1, “INDOLINE DERIVATIVES” (ViiV HEALTHCARE UK LIMITED, priority 2016, published 2019)
